Consider 40 molecules from patent US7745646B2, “Bicyclic heteroaryl inhibitors of PDE4” (Kalypsys, Inc., priority 2006, dated 2010).

pIC50: −log10 of the molar value.

What is called pIC50 is the negative decadic logarithm of the IC50, by convention in mol/L.

In this test the target is T1, PDE4B (Homo sapiens, UniProt Q07343).
T1 construct: hex-histidine (His6) (N); made in house
T1 sequence (Q07343 330-659 limits assumed, species assumed): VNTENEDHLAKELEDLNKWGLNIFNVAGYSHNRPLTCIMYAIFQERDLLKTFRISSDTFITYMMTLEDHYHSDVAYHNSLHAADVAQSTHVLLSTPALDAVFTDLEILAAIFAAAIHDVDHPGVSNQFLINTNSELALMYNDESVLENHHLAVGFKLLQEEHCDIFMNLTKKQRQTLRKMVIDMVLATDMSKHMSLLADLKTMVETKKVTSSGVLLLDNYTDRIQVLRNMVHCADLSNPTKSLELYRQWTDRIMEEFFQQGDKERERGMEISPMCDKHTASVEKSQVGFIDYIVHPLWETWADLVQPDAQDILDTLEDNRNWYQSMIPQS
The test is described as follows: Novel coupled PDE/AK bioluminescent assay, PDE4B inhibition. It counts as biochemical. To be noted: PDE4B catalytic domain.
Description: We developed a novel coupled PDE/AK bioluminescent high-throughput assay to measure the activity of phosphodiesterases. In the PDE/AK assay, the AMP produced from the hydrolysis of cAMP by phosphodiesterase is converted to adenosine diphosphate (ADP) by the phosphotransferase activity of adenylate kinase (also known as ADK or myokinase). Adenylate kinase will catalyze the conversion of 1 mole of AMP and 1 mole of ATP into 2 moles of ADP. Thus the conversion of AMP to ADP will result in the subsequent loss of ATP. The decrease in ATP concentration can be monitored as light output using luciferase in a reaction that requires ATP to produce light. The PDE/AK assay uses luciferase, which catalyzes the production of light from ATP present in the reaction mix. The amount of emitted light is inversely proportional to the level of AMP present in the reaction. Test compounds are incubated with the phosphodiesterases and phosphodiesterase inhibitors will decrease the rate of cAMP hydrolysis and decrease the subsequent production of AMP.
A novel coupled PDE/AK assay was utilized to measure the inhibitory activity of compounds on PDE isoforms. The catalytic domain of PDE4B was fused to an amino-terminus hex-histidine affinity tag and purified. PDE4B enzyme was incubated with compounds for 10 minutes. Cyclic AMP substrate, ATP and adenylate kinase were then added to the PDE enzyme mix and incubated for 45 minutes at room temperature. A commercial ATP detection assay, Perkin Elmer's easyLite ATP detection reagent, was then added to measure the relative amount of ATP present in the reaction. After 10 minute incubation, the luminescent signal was quantitated with either the Perkin Elmer Viewlux or Molecular Devices Acquest or Analyst.
`COc1ccc2c(Nc3c(Cl)cccc3Cl)cc(=O)oc2c1OC1CCCC1` [Example 1, 8-(Cyclopentyloxy)-4-(2,6-dichlorophenylamino)-7-methoxy-2H-chromen-2-one] had a pIC50 greater than 6.00.

Molecule `COc1ccc2c(Cc3c(Cl)cncc3Cl)cc(=O)oc2c1OC1CCCC1` [Example 2, 8-(Cyclopentyloxy)-4-[(3,5-dichloropyridin-4-yl)methyl]-7-methoxy-2H-chromen-2-one] showed a pIC50 greater than 6.00.

In turn, `COc1ccc2c(Nc3c(Cl)cncc3Cl)c(O)c(=O)oc2c1OC1CCCC1` [Example 4, 8-(Cyclopentyloxy)-4-(3,5-dichloropyridin-4-ylamino)-3-hydroxy-7-methoxy-2H-chromen-2-one] showed a pIC50 of less than 6.00.

The molecule `CCc1c(Nc2c(Cl)cncc2Cl)c2ccc(OC)c(OCC3CC3)c2oc1=O` [Example 6, 8-(Cyclopropylmethoxy)-4-(3,5-dichloropyridin-4-ylamino)-3-ethyl-7-methoxy-2H-chromen-2-one] gave a pIC50 greater than 6.00.

`COc1ccc2c(NCC(=O)O)cc(=O)oc2c1OC1CCCC1` [Example 7, 2-(8-(Cyclopentyloxy)-7-methoxy-2-oxo-2H-chromen-4-ylamino)acetic acid] had a pIC50 of less than 6.00.

On to `CCOC(=O)CNc1cc(=O)oc2c(OC3CCCC3)c(OC)ccc12` [Example 8, Ethyl 2-(8-(cyclopentyloxy)-7-methoxy-2-oxo-2H-chromen-4-ylamino)acetate], for which the pIC50 was less than 6.00.

Molecule `COc1ccc2c(NCC(N)=O)cc(=O)oc2c1OC1CCCC1` [Example 9, 2-(8-(Cyclopentyloxy)-7-methoxy-2-oxo-2H-chromen-4-ylamino)acetamide] showed a pIC50 of less than 6.00.

As for `COc1ccc2c(NCC(=O)NO)cc(=O)oc2c1OC1CCCC1` [Example 10, 2-(8-(Cyclopentyloxy)-7-methoxy-2-oxo-2H-chromen-4-ylamino)-N-hydroxyacetamide], the pIC50 was greater than 6.00.

In turn, `COc1ccc2c(Nc3c(Cl)cncc3Br)cc(=O)oc2c1OC1CCCC1` [Example 11, 4-(3-Bromo-5-chloropyridin-4-ylamino)-8-(cyclopentyloxy)-7-methoxy-2H-chromen-2-one] had a pIC50 greater than 6.00.

In turn, `COc1ccc2c(Nc3c(C)cncc3C)cc(=O)oc2c1OC1CCCC1` [Example 12, 8-(Cyclopentyloxy)-4-(3,5-dimethylpyridin-4-ylamino)-7-methoxy-2H-chromen-2-one] gave a negative-log IC50 (pIC50) greater than 6.00.

Molecule `COc1ccc2c(Nc3c(Cl)cncc3Cl)c(C)c(=O)oc2c1OC1CCCC1` [Example 13, 8-(Cyclopentyloxy)-4-(3,5-dichloropyridin-4-ylamino)-7-methoxy-3-methyl-2H-chromen-2-one] gave a negative-log IC50 (pIC50) greater than 6.00.

`COc1ccc2c(Nc3c(Cl)cncc3Cl)c(F)c(=O)oc2c1OC1CCCC1` [Example 14, 8-(Cyclopentyloxy)-4-(3,5-dichloropyridin-4-ylamino)-3-fluoro-7-methoxy-2H-chromen-2-one] had a pIC50 greater than 6.00.

Molecule `C=C(OCC)c1cncc(Cl)c1Nc1cc(=O)oc2c(OC3CCCC3)c(OC)ccc12` [Example 15, 4-(3-Chloro-5-(1-ethoxyvinyl)pyridin-4-ylamino)-8-(cyclopentyloxy)-7-methoxy-2H-chromen-2-one] had a pIC50 greater than 6.00.

The molecule `COc1ccc2c(Nc3c(Cl)ccc(C)c3Cl)cc(=O)oc2c1OC1CCCC1` [Example 16, 8-(Cyclopentyloxy)-4-(2,6-dichloro-3-methylphenylamino)-7-methoxy-2H-chromen-2-one] had a pIC50 of less than 6.00.

`COc1ccc2c(Nc3c(Cl)cccc3C(F)(F)F)cc(=O)oc2c1OC1CCCC1` [Example 17, 4-(2-Chloro-6-(trifluoromethyl)phenylamino)-8-(cyclopentyloxy)-7-methoxy-2H-chromen-2-one] had a pIC50 greater than 6.00.

`COc1ccc2c(Nc3c(C)cccc3Cl)cc(=O)oc2c1OC1CCCC1` [Example 18, 4-(2-Chloro-6-methylphenylamino)-8-(cyclopentyloxy)-7-methoxy-2H-chromen-2-one] gave a pIC50 greater than 6.00.

Regarding `COc1ccc2c(Nc3ccccc3Cl)cc(=O)oc2c1OC1CCCC1` [Example 19, 4-(2-Chlorophenylamino)-8-(cyclopentyloxy)-7-methoxy-2H-chromen-2-one], the pIC50 was greater than 6.00.

Regarding `COC(=O)c1cccc(Cl)c1Nc1cc(=O)oc2c(OC3CCCC3)c(OC)ccc12` [Example 20, Methyl 3-chloro-2-(8-(cyclopentyloxy)-7-methoxy-2-oxo-2H-chromen-4-ylamino)benzoate], the pIC50 is less than 6.00.

Turning to `COc1ccc2c(Nc3c(Cl)cncc3Cl)cc(=O)oc2c1OC(C)C` [Example 21, 4-(3,5-Dichloropyridin-4-ylamino)-8-isopropoxy-7-methoxy-2H-chromen-2-one], the pIC50 is greater than 6.00.

Turning to `COc1ccc2c(Nc3c(Cl)cncc3C(=O)O)cc(=O)oc2c1OC1CCCC1` [Example 22, 5-Chloro-4-(8-(cyclopentyloxy)-7-methoxy-2-oxo-2H-chromen-4-ylamino)nicotinic acid], the pIC50 is less than 6.00.

In turn, `COc1ccc2c(Nc3c(Cl)cncc3Cl)cc(=O)oc2c1OCC(C)C` [Example 23, 4-(3,5-Dichloropyridin-4-ylamino)-8-isobutoxy-7-methoxy-2H-chromen-2-one] showed a pIC50 greater than 6.00.

`COc1ccc2c(Nc3ccccc3Cl)cc(=O)oc2c1OCC1CC1` [Example 24, 4-(2-Chlorophenylamino)-8-(cyclopropylmethoxy)-7-methoxy-2H-chromen-2-one] had a pIC50 greater than 6.00.

`COc1ccc2c(Nc3c(Cl)cncc3Cl)cc(=O)oc2c1OCCCCBr` [Example 25, 8-(4-Bromobutoxy)-4-(3,5-dichloropyridin-4-ylamino)-7-methoxy-2H-chromen-2-one]: the pIC50 is greater than 6.00.

On to `COc1ccc2c(Nc3c(Cl)cncc3Cl)cc(=O)oc2c1OCc1ccccc1` [Example 26, 8-(Benzyloxy)-4-(3,5-dichloropyridin-4-ylamino)-7-methoxy-2H-chromen-2-one], for which the pIC50 is greater than 6.00.

Molecule `COc1ccc2c(Nc3c(Cl)cncc3Cl)cc(=O)oc2c1OCCCCN(C)C` [Example 27, 4-(3,5-Dichloropyridin-4-ylamino)-8-(4-(dimethylamino)butoxy)-7-methoxy-2H-chromen-2-one] showed a pIC50 greater than 6.00.

`COc1ccc2c(Nc3c(Cl)cncc3Cl)cc(=O)oc2c1OCCCCCBr` [Example 28, 8-(5-Bromopentyloxy)-4-(3,5-dichloropyridin-4-ylamino)-7-methoxy-2H-chromen-2-one]: the pIC50 is greater than 6.00.

The molecule `COc1ccc2c(Nc3c(Cl)cncc3Cl)cc(=O)oc2c1O` [Example 29, 4-(3,5-Dichloropyridin-4-ylamino)-8-hydroxy-7-methoxy-2H-chromen-2-one] gave a pIC50 greater than 6.00.

The molecule `COc1ccc2c(Nc3c(Cl)cncc3Cl)cc(=O)oc2c1OCCCBr` [Example 30, 8-(3-Bromopropoxy)-4-(3,5-dichloropyridin-4-ylamino)-7-methoxy-2H-chromen-2-one] gave a negative logarithm of the IC50 (pIC50) greater than 6.00.

Molecule `COc1ccc2c(Nc3c(Cl)cncc3Cl)cc(=O)oc2c1OCCCCCN(C)C` [Example 31, 4-(3,5-Dichloropyridin-4-ylamino)-8-(5-(dimethylamino)pentyloxy)-7-methoxy-2H-chromen-2-one] had a pIC50 greater than 6.00.

With `COc1ccc2c(Nc3c(Cl)cncc3Cl)cc(=O)oc2c1OCCCN(C)C` [Example 32, 4-(3,5-Dichloropyridin-4-ylamino)-8-(3-(dimethylamino)propoxy)-7-methoxy-2H-chromen-2-one], the pIC50 was greater than 6.00.

Take `COc1ccc2c(Nc3c(Cl)cncc3Cl)cc(=O)oc2c1OCc1ccccc1[N+](=O)[O-]` [Example 33, 4-(3,5-Dichloropyridin-4-ylamino)-7-methoxy-8-(2-nitrobenzyloxy)-2H-chromen-2-one]: the pIC50 was greater than 6.00.

In the case of `COc1ccc2c(Nc3c(Cl)cncc3Cl)cc(=O)oc2c1OCc1cccc([N+](=O)[O-])c1` [Example 34, 4-(3,5-Dichloropyridin-4-ylamino)-7-methoxy-8-(3-nitrobenzyloxy)-2H-chromen-2-one], the pIC50 is greater than 6.00.

For the molecule `COc1ccc2c(Nc3c(Cl)cncc3Cl)cc(=O)oc2c1OCc1ccc([N+](=O)[O-])cc1` [Example 35, 4-(3,5-Dichloropyridin-4-ylamino)-7-methoxy-8-(4-nitrobenzyloxy)-2H-chromen-2-one], the pIC50 was greater than 6.00.

Take `CCOC(=O)CCCOc1c(OC)ccc2c(Nc3c(Cl)cncc3Cl)cc(=O)oc12` [Example 36, Ethyl 4-(4-(3,5-dichloropyridin-4-ylamino)-7-methoxy-2-oxo-2H-chromen-8-yloxy)butanoate]: the pIC50 is greater than 6.00.

`CCOC(=O)CCCCOc1c(OC)ccc2c(Nc3c(Cl)cncc3Cl)cc(=O)oc12` [Example 37, Ethyl 5-(4-(3,5-dichloropyridin-4-ylamino)-7-methoxy-2-oxo-2H-chromen-8-yloxy)pentanoate] showed a pIC50 greater than 6.00.

Turning to `CCOC(=O)CCCCCOc1c(OC)ccc2c(Nc3c(Cl)cncc3Cl)cc(=O)oc12` [Example 38, Ethyl 6-(4-(3,5-dichloropyridin-4-ylamino)-7-methoxy-2-oxo-2H-chromen-8-yloxy)hexanoate], the pIC50 is greater than 6.00.

The molecule `COc1ccc2c(N[C@H]3CC[C@@H](C(=O)O)CC3)cc(=O)oc2c1OC1CCCC1` [Example 39, cis-4-(8-(Cyclopentyloxy)-7-methoxy-2-oxo-2H-chromen-4-ylamino)cyclohexanecarboxylic acid] had a negative logarithm of the IC50 (pIC50) of less than 6.00.

Molecule `COc1ccc2c(Nc3c(Cl)cncc3Cl)cc(=O)oc2c1OCC1CCCC1` [Example 40, 8-(Cyclopentylmethoxy)-4-(3,5-dichloropyridin-4-ylamino)-7-methoxy-2H-chromen-2-one] gave a pIC50 greater than 6.00.

In the case of `COc1ccc2c(Nc3c(Cl)cncc3Cl)cc(=O)oc2c1OCCc1ccccc1` [Example 41, 4-(3,5-Dichloropyridin-4-ylamino)-7-methoxy-8-phenethoxy-2H-chromen-2-one], the negative-log IC50 (pIC50) was greater than 6.00.

Take `COc1ccc2c(Nc3c(Cl)cncc3Cl)cc(=O)oc2c1OCCCC(=O)O` [Example 42, 4-(4-(3,5-Dichloropyridin-4-ylamino)-7-methoxy-2-oxo-2H-chromen-8-yloxy)butanoic acid]: the pIC50 is greater than 6.00.
